± gives the standard deviation of the averaged measurements.
Columns and labels:
Danio rerio embryo [1] = experiment: EC50 Yolk sac size_Increase
Experimental: (§1)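 Zebrafish embryos (UFZ-OBI strain) were exposed from 2 hpf for 48 h (2 dpf) or 96 h (4 dpf) at 28 °C; spontaneous tail coiling was scored at 25 hpf. Morphological features from automated image analysis (FishInspector), heart rate and locomotor response were fitted with drc models. Quantal endpoints were dichotomised at 2.5 SD from controls and fitted with a log-logistic model; heart rate, pigmentation and STC were normalised to the replicate control mean. Betamethasone was tested as betamethasone dipropionate, diflorasone as diflorasone diacetate.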

Danio rerio embryo [2] = experiment: EC20 Curvature_Increase; higher = less potent
Experimental: as §1

Danio rerio embryo [3] = experiment: EC10 LMR dark; higher = less potent; settings: exposure time: 4 dpf
Experimental: as §1

Danio rerio embryo [4] = experiment: EC50 Pericard size_Increase
Experimental: as §1

Danio rerio embryo [5] = experiment: EC10 Pericard size_Increase; higher = less potent
Experimental: as §1

Danio rerio embryo [6] = experiment: EC10 Body length_Decrease; higher = less potent; settings: exposure time: 4 dpf
Experimental: as §1

Danio rerio embryo [7] = experiment: EC20 Body length_Decrease; higher = less potent; settings: exposure time: 4 dpf
Experimental: as §1

Danio rerio embryo [8] = experiment: EC20 Any effect; higher = less potent
Experimental: as §1

Danio rerio embryo [9] = experiment: EC50 Body length_Decrease; settings: exposure time: 4 dpf
Experimental: as §1

Danio rerio embryo [10] = experiment: EC50 Otolith-eye distance_Decrease; settings: exposure time: 4 dpf
Experimental: as §1

Danio rerio embryo [11] = experiment: EC10 Any effect; higher = less potent
Experimental: as §1

Danio rerio embryo [12] = experiment: EC20 Heart rate; higher = less potent; settings: exposure time: 4 dpf
Experimental: as §1

Danio rerio embryo [13] = settings: exposure time: 4 dpf
Experimental: as §1

Danio rerio embryo [14] = experiment: EC20 Eye size_Decrease; higher = less potent; settings: exposure time: 4 dpf
Experimental: as §1

Danio rerio embryo [15] = experiment: EC20 LMR dark; higher = less potent; settings: exposure time: 4 dpf
Experimental: as §1

Danio rerio embryo [16] = experiment: EC20 Pericard size_Increase; higher = less potent
Experimental: as §1

Danio rerio embryo [17] = experiment: EC20 Otolith-eye distance_Decrease; higher = less potent; settings: exposure time: 4 dpf
Experimental: as §1

Danio rerio embryo [18] = experiment: EC20 Bladder size_Decrease; higher = less potent; settings: exposure time: 4 dpf
Experimental: as §1

Danio rerio embryo [19] = experiment: EC10 Curvature_Increase; higher = less potent
Experimental: as §1

Danio rerio embryo [20] = settings: exposure time: 4 dpf; remark: listed apart in the source
Experimental: as §1

Danio rerio embryo [21] = experiment: EC50 Bladder size_Decrease; settings: exposure time: 4 dpf
Experimental: as §1

Danio rerio embryo [22] = experiment: EC10 Heart rate; higher = less potent; settings: exposure time: 4 dpf
Experimental: as §1

Danio rerio embryo [23] = experiment: EC50 Eye size_Decrease; settings: exposure time: 4 dpf
Experimental: as §1

Danio rerio embryo [24] = experiment: spontaneous tail coiling frequency (coils/min/embryo); higher = more spontaneous movement; settings: 25 hpf
Experimental: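 Spontaneous tail coilings of zebrafish embryos exposed from 2 hpf were recorded at 24-25 hpf in 1-min videos and detected by a KNIME workflow from grey-value variance. Betamethasone was tested as the dipropionate, diflorasone as the diacetate.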

Danio rerio embryo [25] = experiment: EC50 Curvature_Increase
Experimental: as §1

Danio rerio embryo [26] = experiment: EC20 Yolk sac size_Increase; higher = less potent
Experimental: as §1

Danio rerio embryo [27] = settings: exposure time: 4 dpf; remark: listed apart in the source
Experimental: as §1

Danio rerio embryo [28] = tested on: Danio rerio embryo
Experimental: as §1

Danio rerio embryo [29] = experiment: EC10 Eye size_Decrease; higher = less potent; settings: exposure time: 4 dpf
Experimental: as §1

Danio rerio embryo [30] = experiment: EC20 Eye-jaw distance_Decrease; higher = less potent; settings: exposure time: 4 dpf
Experimental: as §1

Danio rerio embryo [31] = experiment: EC10 Bladder size_Decrease; higher = less potent; settings: exposure time: 4 dpf
Experimental: as §1

Danio rerio embryo [32] = experiment: EC10 Otolith-eye distance_Decrease; higher = less potent; settings: exposure time: 4 dpf
Experimental: as §1

Danio rerio embryo [33] = experiment: EC50 Eye-jaw distance_Decrease; settings: exposure time: 4 dpf
Experimental: as §1

Danio rerio embryo [34] = experiment: EC10 Lack of SB; higher = less potent; settings: exposure time: 4 dpf
Experimental: as §1

Danio rerio embryo [35] = experiment: EC10 Eye-jaw distance_Decrease; higher = less potent; settings: exposure time: 4 dpf
Experimental: as §1

Danio rerio embryo [36] = experiment: EC10 Yolk sac size_Increase; higher = less potent
Experimental: as §1

Danio rerio embryo [37] = experiment: EC20 Lack of SB; higher = less potent; settings: exposure time: 4 dpf
Experimental: as §1

## CC1(C)O[C@@H]2[C@@H](CO[C@@]3(COS(N)(=O)=O)OC(C)(C)O[C@@H]23)O1 [Topiramate]
Danio rerio embryo [1]; exposure time: 2 dpf
  EC50 Yolk sac size Increase: 990 µM
Danio rerio embryo [1]; exposure time: 4 dpf
  EC50 Yolk sac size Increase: 303 µM
Danio rerio embryo [2]; exposure time: 2 dpf
  EC20 Curvature Increase: 1080 µM
Danio rerio embryo [2]; exposure time: 4 dpf
  EC20 Curvature Increase: 591 µM
Danio rerio embryo [3]
  EC10 LMR dark: 273 µM
Danio rerio embryo [4]; exposure time: 2 dpf
  EC50 Pericard size Increase: 208 µM
Danio rerio embryo [4]; exposure time: 4 dpf
  EC50 Pericard size Increase: 563 µM
Danio rerio embryo [5]; exposure time: 2 dpf
  EC10 Pericard size Increase: 11.2 µM
Danio rerio embryo [5]; exposure time: 4 dpf
  EC10 Pericard size Increase: 210 µM
Danio rerio embryo [6]
  EC10 Body length Decrease: 24.1 µM
Danio rerio embryo [7]
  EC20 Body length Decrease: 46.4 µM
Danio rerio embryo [8]; exposure time: 2 dpf
  EC20 Any effect: 59.1 µM
Danio rerio embryo [8]; exposure time: 4 dpf
  EC20 Any effect: 38.7 µM
Danio rerio embryo [9]
  EC50 Body length Decrease: 142 µM
Danio rerio embryo [10]
  EC50 Otolith-eye distance Decrease: 80.9 µM
Danio rerio embryo [11]; exposure time: 2 dpf
  EC10 Any effect: 22 µM
Danio rerio embryo [11]; exposure time: 4 dpf
  EC10 Any effect: 22.9 µM
Danio rerio embryo [12]
  EC20 Heart rate: 28.3 µM
Danio rerio embryo [13]
  EC50 Heart rate: 87.8 µM
Danio rerio embryo [14]
  EC20 Eye size Decrease: 97.9 µM
Danio rerio embryo [15]
  EC20 LMR dark: 331 µM
Danio rerio embryo [16]; exposure time: 2 dpf
  EC20 Pericard size Increase: 33 µM
Danio rerio embryo [16]; exposure time: 4 dpf
  EC20 Pericard size Increase: 302 µM
Danio rerio embryo [17]
  EC20 Otolith-eye distance Decrease: 37.9 µM
Danio rerio embryo [18]
  EC20 Bladder size Decrease: 34.7 µM
Danio rerio embryo [19]; exposure time: 2 dpf
  EC10 Curvature Increase: 986 µM
Danio rerio embryo [19]; exposure time: 4 dpf
  EC10 Curvature Increase: 455 µM
Danio rerio embryo [20]
  EC50 LMR dark: 461 µM
Danio rerio embryo [21]
  EC50 Bladder size Decrease: 49.5 µM
Danio rerio embryo [22]
  EC10 Heart rate: 13.3 µM
Danio rerio embryo [23]
  EC50 Eye size Decrease: 242 µM
Danio rerio embryo [24]; 49.6 µM
  spontaneous tail coiling frequency: 0.85
Danio rerio embryo [24]; 81.8 µM
  spontaneous tail coiling frequency: 1.99 ± 1.7
Danio rerio embryo [24]; 135 µM
  spontaneous tail coiling frequency: 2.03 ± 1.4
Danio rerio embryo [24]; 222.7 µM
  spontaneous tail coiling frequency: 0.24
Danio rerio embryo [24]; 367.5 µM
  spontaneous tail coiling frequency: 1.31 ± 0.99
Danio rerio embryo [24]; 606.3 µM
  spontaneous tail coiling frequency: 2.44 ± 2
Danio rerio embryo [24]; 1000 µM
  spontaneous tail coiling frequency: 1.46
Danio rerio embryo [24]; 1000.4 µM
  spontaneous tail coiling frequency: 2.49
Danio rerio embryo [24]; 1473.4 µM
  spontaneous tail coiling frequency: 2.59
Danio rerio embryo [25]; exposure time: 2 dpf
  EC50 Curvature Increase: 1250 µM
Danio rerio embryo [25]; exposure time: 4 dpf
  EC50 Curvature Increase: 927 µM
Danio rerio embryo [26]; exposure time: 2 dpf
  EC20 Yolk sac size Increase: 722 µM
Danio rerio embryo [26]; exposure time: 4 dpf
  EC20 Yolk sac size Increase: 149 µM
Danio rerio embryo [27]
  EC50 Lack of SB: 69.7 µM
Danio rerio embryo [28]; exposure time: 2 dpf
  EC50 Any effect: 321 µM
Danio rerio embryo [28]; exposure time: 4 dpf
  EC50 Any effect: 94.9 µM
Danio rerio embryo [29]
  EC10 Eye size Decrease: 57.7 µM
Danio rerio embryo [30]
  EC20 Eye-jaw distance Decrease: 165 µM
Danio rerio embryo [31]
  EC10 Bladder size Decrease: 28.2 µM
Danio rerio embryo [32]
  EC10 Otolith-eye distance Decrease: 24.4 µM
Danio rerio embryo [33]
  EC50 Eye-jaw distance Decrease: 236 µM
Danio rerio embryo [34]
  EC10 Lack of SB: 29.7 µM
Danio rerio embryo [35]
  EC10 Eye-jaw distance Decrease: 133 µM
Danio rerio embryo [36]; exposure time: 2 dpf
  EC10 Yolk sac size Increase: 601 µM
Danio rerio embryo [36]; exposure time: 4 dpf
  EC10 Yolk sac size Increase: 98.8 µM
Danio rerio embryo [37]
  EC20 Lack of SB: 40.7 µM

Source: the supplement of paper PMC9013687
